Test results taken from publication PMC12064818, “A general assay platform to study protein pharmacology using ligand-dependent structural dynamics” (Nature Communications, 2025).

Target: T1, FLuc-C-HiBiT (Photinus pyralis, UniProt P08659)
T1 construct: firefly luciferase with C-terminal HiBiT tag, E. coli expressed
Experiment: biochemical
Settings: enzyme activity, 10 uM ATP; read-out: IC50 or SDR50 (mM) / FLuc E

T1 sequence (P08659 whole entry, looked up): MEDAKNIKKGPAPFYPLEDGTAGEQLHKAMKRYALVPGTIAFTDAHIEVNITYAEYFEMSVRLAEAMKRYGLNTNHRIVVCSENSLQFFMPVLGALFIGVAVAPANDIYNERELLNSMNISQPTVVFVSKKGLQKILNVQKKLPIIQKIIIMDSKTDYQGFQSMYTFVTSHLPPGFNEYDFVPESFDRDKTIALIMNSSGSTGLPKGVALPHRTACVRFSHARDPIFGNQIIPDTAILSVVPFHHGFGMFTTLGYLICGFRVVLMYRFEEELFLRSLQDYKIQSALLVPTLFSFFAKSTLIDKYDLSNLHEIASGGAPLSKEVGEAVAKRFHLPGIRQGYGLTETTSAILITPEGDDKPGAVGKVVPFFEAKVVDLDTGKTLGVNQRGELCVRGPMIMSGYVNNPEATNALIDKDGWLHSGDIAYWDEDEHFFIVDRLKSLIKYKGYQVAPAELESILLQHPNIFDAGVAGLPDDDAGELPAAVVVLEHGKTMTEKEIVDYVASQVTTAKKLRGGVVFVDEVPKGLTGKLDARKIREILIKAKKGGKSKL

Compound | IC50
CCc1ccccc1Nc1nc(-c2cccc(OC)c2OC)no1 [NCGC00422354-01] | 0.0111 mM
Cn1ccnc1C(O)c1cc2n(n1)CCN(c1ncnc3[nH]cnc13)C2 (stereo not drawn) [NCGC00422809-01] | > 0.03 mM
COc1cccc(-n2cc(CN(C)c3ncncn3)cn2)c1 [NCGC00424283-01] | > 0.03 mM
Cc1ccc(NC(=O)N2CCC(CCNC(=O)C3CC3)CC2)cc1 [NCGC00424850-01] | 0.0111 mM
CCC(=O)NCCC1CCN(C(=O)Nc2ccc(C)cc2)CC1 [NCGC00424867-01] | 0.0124 mM
CC(=O)NCCC1CCN(C(=O)Nc2ccc(C)cc2)CC1 [NCGC00424871-01] | 0.0124 mM
O=C(NCCC1CCN(C(=O)Nc2cc(F)cc(F)c2)CC1)c1ccc(F)cc1 [NCGC00425011-01] | > 0.03 mM
COc1ccc(C(=O)NCCC2CCN(C(=O)Nc3cc(F)cc(F)c3)CC2)cc1 [NCGC00425013-01] | 0.00989 mM
O=C(NCc1ccoc1)c1ccc2nc(-c3ccc(F)cc3)cn2c1 [NCGC00425034-01] | 0.0111 mM
Cc1ccc(NC(=O)N2CCC(CCNC(=O)c3ccc(F)cc3)CC2)cc1F [NCGC00425047-01] | 0.0111 mM
Cc1ccc(NC(=O)N2CCC(CCNC(=O)C3CC3)CC2)cc1F [NCGC00425057-01] | 0.0111 mM
Cc1ccc(NC(=O)N2CCC(CCNC(=O)C3CCC3)CC2)cc1F [NCGC00425059-01] | 0.0124 mM
CCC(=O)NCCC1CCN(C(=O)Nc2ccc(C)c(F)c2)CC1 [NCGC00425067-01] | 0.0111 mM
OCc1cn(CC2CCN(c3ncnc4[nH]cnc34)CC2)nn1 [NCGC00425096-01] | > 0.03 mM
CN(Cc1nccs1)c1ccc(-c2nc(-c3ccccc3F)no2)cn1 [NCGC00425298-01] | 0.00989 mM
CC(Cc1cnccn1)Nc1ccc(-c2nc(-c3cccc(Cl)c3)no2)cn1 (stereo not drawn) [NCGC00425352-01] | 0.0111 mM
CCN1C(=O)CCc2cc(NC(=O)c3ccc(C(C)C)cc3)ccc21 [NCGC00425391-01] | 0.00989 mM
CCN1C(=O)CCc2cc(NC(=O)c3ccc(OC(F)(F)F)cc3)ccc21 [NCGC00425397-01] | 0.0111 mM
Cc1cccc(-c2cccc(NC(=O)C3CCCN(C(=O)CC(F)(F)F)C3)c2)c1 (stereo not drawn) [NCGC00425452-01] | > 0.03 mM

Compound | IC50
CN(Cc1cccnc1)c1ccc(-c2nc(COc3ccccc3)no2)cn1 [NCGC00425502-01] | 0.0124 mM
CN(C)c1cccc(C(=O)Nc2ccc3c(N4CCOCC4)ncnc3c2)c1 [NCGC00425557-01] | 0.00989 mM
Cc1c(-c2ccccc2F)[nH]c2ccc(CNC(=O)CC3CCC(=O)N3)cc12 (stereo not drawn) [NCGC00425710-01] | 0.00989 mM
CC(=O)N1CCCN(c2ccc(-c3nc(-c4ccccc4F)no3)cn2)CC1 [NCGC00426241-01] | 0.0157 mM
CN(CCc1ccccn1)c1ccc(-c2nc(COc3ccccc3)no2)cn1 [NCGC00426301-01] | 0.0111 mM
COc1ccc(OC)c(CN2CCOc3ccc(C(=O)NCc4ccc(C)cc4)cc3C2)c1 [NCGC00426332-01] | > 0.03 mM
Cc1ccc(CNC(=O)c2ccc3c(c2)CN(Cc2cnn(C)c2C)CCO3)cc1 [NCGC00426362-01] | > 0.03 mM
Cc1cc(CNC(=O)C2(C(N)=O)CC2)c2[nH]c(-c3ccccc3)c(C)c2c1 [NCGC00426839-01] | 0.0111 mM
COCC1CCN(c2ccc(-c3nc(-c4ccccc4C)no3)cn2)C1 (stereo not drawn) [NCGC00427117-01] | 0.0176 mM
CC(CCn1cccn1)NC(=O)c1csc2nc(-c3ccc(C(F)(F)F)cc3)cn12 (stereo not drawn) [NCGC00427469-01] | 0.00989 mM
CC(Cn1cccn1)Nc1ccc(-c2nc(-c3ccccc3F)no2)cn1 (stereo not drawn) [NCGC00427483-01] | 0.00989 mM
O=C(NCc1ccco1)Nc1cccc(-c2ccc(N3CCCC3)nn2)c1 [NCGC00427562-01] | 0.00989 mM
O=C(c1ccc2oc(-c3cccc(F)c3)nc2c1)N1CCCCC1CCO (stereo not drawn) [NCGC00427691-01] | 0.014 mM
COc1ccc(OCc2cc(C(=O)N3C[C@H]4CC[C@H]3C4)n[nH]2)c(Cl)c1 [NCGC00428264-01] | > 0.03 mM
O=C1OCCN1CCNc1ccc(-c2nc(-c3ccccc3F)no2)cn1 [NCGC00428584-01] | 0.0124 mM
O=C(Nc1ccccc1)C1CCN(C(=O)N2CC3CC(C2)[C@H]2CCCC(=O)N2C3)CC1 (stereo partly drawn) [NCGC00428953-01] | > 0.03 mM
Cc1nccn1CCN(C)c1ccc(-c2nc(COc3ccccc3)no2)cn1 [NCGC00428976-01] | 0.00989 mM
C=CCCC(=O)N1CCOc2c(O)cc(-c3nc4ccccc4s3)cc2C1 [NCGC00429409-01] | > 0.03 mM

The remaining molecules from weak to strong by IC50, led by results:

IC50 | Compound
0.00989 mM | COc1ccc(-c2noc(Nc3ccc(C)c(C)c3)n2)cc1 [NCGC00422330-01]
0.00989 mM | O[C@H]1C[C@@H](c2cc(N3CCc4c(Cl)cccc4C3)ncn2)C1 [NCGC00424922-01]
0.00881 mM | O=C(Nc1cccc(-c2ccc(N3CCCC3)nn2)c1)c1c(F)cccc1F [NCGC00427548-01]
0.00881 mM | CN1CCN(c2ccc(-c3cccc(NC(=O)C4CCCCC4)c3)nn2)CC1 [NCGC00427550-01]
0.00881 mM | CCC(=O)Nc1ccc2nnc(-c3ccc(C(=O)Nc4ccc5c(c4)OCCO5)cc3)n2c1 [NCGC00429833-01]
0.00785 mM | COc1ccc(Nc2nc(-c3cccc(OC)c3)no2)cc1 [NCGC00422374-01]
0.00785 mM | CCc1ccc(C(=O)Nc2ccc3c(N4CCOCC4)ncnc3c2)cc1 [NCGC00425539-01]
0.00785 mM | CN(C)C(=O)c1ccc(-c2cccc(-c3ccn(CC4CC4)n3)c2)o1 [NCGC00426335-01]
0.00624 mM | COc1cccc(-c2noc(Nc3ccc4c(c3)OCO4)n2)c1 [NCGC00422370-01]
0.00624 mM | CCc1cccc(NC(=O)Nc2cccc(-c3ccc(N4CCOCC4)nn3)c2)c1 [NCGC00427616-01]
0.00556 mM | O=C(Nc1cccc(-c2ccc(N3CCOCC3)nn2)c1)Nc1cccc(Cl)c1F [NCGC00427620-01]
0.00556 mM | Cc1c(-c2ccccc2F)[nH]c2ccc(CNC(=O)C3CCCN(C(N)=O)C3)cc12 (stereo not drawn) [NCGC00429038-01]
0.00495 mM | O=C(Nc1cccc(-c2ccc(N3CCOCC3)nn2)c1)Nc1cccc(C(F)(F)F)c1 [NCGC00427594-01]
0.00495 mM | Cc1nnc(CN(C)c2ccc(-c3nc(-c4cccc(Cl)c4)no3)cn2)o1 [NCGC00427683-01]
0.00442 mM | CN(Cc1cnn(C)c1)C(=O)c1csc2nc(-c3ccc(C(F)(F)F)cc3)cn12 [NCGC00425000-01]
0.00394 mM | COc1cccc(-c2noc(Nc3ccc(OC)c(OC)c3)n2)c1 [NCGC00422366-01]
0.00394 mM | Cc1ccc(C(=O)Nc2cccc(-c3ccc(N4CCN(C)CC4)nn3)c2)cc1C [NCGC00427552-01]
0.00394 mM | CCOc1ccccc1NC(=O)Nc1cccc(-c2ccc(N3CCOCC3)nn2)c1 [NCGC00427574-01]
0.00313 mM | O=C1CCc2cc(NC(=O)c3n[nH]c4ccccc34)ccc2N1 [NCGC00425473-01]
0.00313 mM | COc1ccccc1NC(=O)Nc1cccc(-c2ccc(N3CCOCC3)nn2)c1 [NCGC00427580-01]
0.00313 mM | O=C(Nc1cc(F)cc(F)c1)Nc1cccc(-c2ccc(N3CCOCC3)nn2)c1 [NCGC00427624-01]
0.00313 mM | CN(CCc1cn[nH]c1)c1ccc(-c2nc(-c3ccccc3F)no2)cn1 [NCGC00429241-01]
0.00279 mM | COc1cccc(-c2noc(-c3ccc(N4CCCC(CO)C4)nc3)n2)c1OC (stereo not drawn) [NCGC00425266-01]
0.00279 mM | Cc1ccc(CNC(=O)Nc2cccc(-c3ccc(N4CCOCC4)nn3)c2)cc1 [NCGC00427596-01]

IC50 | Compound
0.00279 mM | O=C(Nc1cccc(-c2ccc(N3CCOCC3)nn2)c1)Nc1ccccc1F [NCGC00427598-01]
0.00279 mM | COc1cccc(CNC(=O)Nc2cccc(-c3ccc(N4CCOCC4)nn3)c2)c1 [NCGC00427600-01]
0.00279 mM | O=C(Nc1cccc(-c2ccc(N3CCOCC3)nn2)c1)Nc1ccc2c(c1)CCC2 [NCGC00427612-01]
0.00248 mM | O=C(Nc1cccc(-c2ccc(N3CCOCC3)nn2)c1)Nc1cc(F)ccc1F [NCGC00427590-01]
0.00248 mM | COc1ccc2cc(C3CN(C(=O)c4cccc(CO)c4)CCO3)ccc2c1 (stereo not drawn) [NCGC00430133-01]
0.00221 mM | COc1ccc(-c2noc(Nc3ccccc3)n2)cc1 [NCGC00422340-01]
0.00197 mM | O=C(Nc1ccc(F)cc1)Nc1cccc(-c2ccc(N3CCOCC3)nn2)c1 [NCGC00427578-01]
0.00197 mM | COc1ccc(CNC(=O)Nc2cccc(-c3ccc(N4CCOCC4)nn3)c2)cc1 [NCGC00427608-01]
0.00176 mM | c1coc(-c2nc3nccc(-c4ccc5c(c4)OCCCO5)n3n2)c1 [NCGC00424571-01]
0.00176 mM | COc1ccc(NC(=O)Nc2cccc(-c3ccc(N4CCOCC4)nn3)c2)cc1 [NCGC00427572-01]
0.00176 mM | COc1cc(NC(=O)Nc2cccc(-c3ccc(N4CCOCC4)nn3)c2)cc(OC)c1 [NCGC00427592-01]
0.00176 mM | O=C(NCc1ccc(F)cc1)Nc1cccc(-c2ccc(N3CCOCC3)nn2)c1 [NCGC00427604-01]
0.00157 mM | COc1ccc(-c2noc(Nc3ccc4c(c3)OCCO4)n2)cc1 [NCGC00422336-01]
0.00157 mM | COc1cccc(-c2noc(Nc3ccc4c(c3)OCCO4)n2)c1 [NCGC00422372-01]
0.00157 mM | CSc1cccc(NC(=O)Nc2cccc(-c3ccc(N4CCOCC4)nn3)c2)c1 [NCGC00427606-01]
0.00124 mM | COc1ccc(NC(=O)Nc2cccc(-c3ccc(N4CCOCC4)nn3)c2)cc1Cl [NCGC00427610-01]
0.00111 mM | COc1ccc(C)cc1NC(=O)Nc1cccc(-c2ccc(N3CCCCC3)nn2)c1 [NCGC00427638-01]
0.000989 mM | COc1ccc(NC(=O)Nc2cccc(-c3ccc(N4CCCCC4)nn3)c2)c(OC)c1 [NCGC00427636-01]
0.000989 mM | O=C(Nc1cccc(F)c1)Nc1cccc(-c2ccc(N3CCCCC3)nn2)c1 [NCGC00427644-01]
0.000989 mM | Cc1ccccc1-c1noc(-c2ccc(NC(C)c3cnn(C)c3)nc2)n1 (stereo not drawn) [NCGC00428942-01]
0.000881 mM | COc1ccc(NC(=O)Nc2cccc(-c3ccc(N4CCOCC4)nn3)c2)cc1F [NCGC00427622-01]
0.000881 mM | COc1ccc(NC(=O)N2CCc3c(C(=O)Nc4ccc5c(c4)OCO5)cccc32)cc1 [NCGC00430172-01]
0.000495 mM | COc1ccc(CNC(=O)Nc2cccc(-c3ccc(N4CCCCC4)nn3)c2)cc1 [NCGC00427646-01]
